# Experimental data taken from US10111885B2, “Compositions and therapeutic methods for the treatment of complement-associated diseases” (Resverlogix Corp., priority 2015, dated 2018).
# What was measured:
# [1] = tested on: complement C3 mRNA; assay: Complement mRNA expression in primary human hepatocytes; format: cell-based; conditions: 0.3 uM, maximum at 24 h, single donor
# Protocol: (§1) Huh-7 and HepG2 cells are liver-derived cell lines and are models for what can occur in the liver. Huh-7 cells (JCRB Cell Bank) were introduced to 96-well plates (^˜2.5×10^5 per well) in 100 μL DMEM containing 10% (v/v) FBS, 100 U/mL penicillin, 100 ug/mL streptomycin and 5 ug/mL plasmocin (all reagents from Gibco, except for the former, which was obtained from Invivogen). After 24 h, Huh-7 cells were treated with compounds in the same media formulation used for plating, and supplemented with 0.1% DMSO for the amount of time indicated in tables 2, 3, and 4. For select experiments, 24 h post-plating, cells were treated with cytokines and the compound of interest simultaneously, for a total treatment time of 48 h. Alternatively, 24 h after plating, cells were pre-treated with cytokines for 24 h before adding the compound of interest for 48 h. HepG2 cells (ATCC) were cultured in 96-well plates (^˜2.5×10^5 per well) in MEM containing 10% FBS, 1× non-essential amino acids, 1 mM sodium pyruvate, 2 mM L-glutamine, 100 U/mL penicillin, 100 ug/mL streptomycin and 5 ug/mL plasmocin. Serum amount was reduced to 0.5% for treatments with compound or cytokines. Timing of treatment of HepG2 cells with compounds and cytokines was as described for Huh-7 cells. Primary human hepatocytes (CellzDirect/Life Technologies) were plated in collagen coated 96-well plates at 70 000 cells/well, then overlaid with Matrigel™ as recommended by the supplier. Cells were treated with compounds of interest and/or cytokines for the indicated time points in the recommended media supplemented with 0.1% DMSO and 10% FBS (v/v). Cells were harvested by mRNA Catcher PLUS Kit (Life Technologies) followed by real-time PCR using the RNA UltraSense One-Step qRT-PCR System. The level of the mRNA of interest was measured by TaqMan real-time PCR relative to the endogenous control cyclophilin A in the same sample.
# [2] = tested on: complement C2 mRNA; assay: as above; format: cell-based; conditions: 0.3 uM, maximum at 72 h, single donor
# Protocol: as §1
# [3] = tested on: complement C1S mRNA; assay: as above; format: cell-based; conditions: 0.3 uM, maximum at 72 h, single donor
# Protocol: as §1
# [4] = tested on: complement C5 mRNA; assay: as above; format: cell-based; conditions: 0.3 uM, maximum at 24 h, single donor
# Protocol: as §1
# [5] = tested on: complement C9 mRNA; assay: as above; format: cell-based; conditions: 0.3 uM, maximum at 48 h, single donor
# Protocol: as §1
# [6] = tested on: complement C4 mRNA; assay: as above; format: cell-based; conditions: 0.3 uM, maximum at 24 h, single donor
# Protocol: as §1
# [7] = tested on: MBL2 mRNA; assay: as above; format: cell-based; conditions: 0.3 uM, maximum at 24 h, single donor
# Protocol: as §1
# [8] = tested on: Complement C1s subcomponent; assay: SOMAscan protein quantitation in clinical samples, ASSURE trial; format: in vivo, human; conditions: 200 mg/day, week 26 vs. baseline
# Protocol: (§2) In this example, plasma samples from human subjects treated with placebo or RVX000222 are analyzed by the SOMAscan™ assay (SomaLogic). The method can be used to determine the effect of compounds, including those in the present invention, on the abundance of proteins, including complement components, in clinical samples. […] Using the SOMAscan™ technology, each sample is analyzed for the relative presence and amount of 1,310 different proteins. The changes in values for each protein analyte are calculated versus the baseline measure, and statistically significant (p<0.05) values are reported (Table 10). Downregulation of expression of components of the complement cascade will result in reduced activity of the pathway and thus will constitute a positive result.
# [9] = tested on: C-reactive protein; assay: as above; format: in vivo, human; conditions: 200 mg/day, week 26 vs. baseline
# Protocol: as §2
# [10] = tested on: C5a anaphylatoxin; assay: as above; format: in vivo, human; conditions: 200 mg/day, week 26 vs. baseline
# Protocol: as §2
# [11] = tested on: Complement C5b-C6 complex; assay: as above; format: in vivo, human; conditions: 200 mg/day, week 26 vs. baseline
# Protocol: as §2
# [12] = tested on: Complement component C8; assay: as above; format: in vivo, human; conditions: 200 mg/day, week 26 vs. baseline
# Protocol: as §2
# [13] = tested on: Complement component C6; assay: as above; format: in vivo, human; conditions: 200 mg/day, week 26 vs. baseline
# Protocol: as §2
# [14] = tested on: Complement decay-accelerating factor; assay: as above; format: in vivo, human; conditions: 200 mg/day, week 26 vs. baseline
# Protocol: as §2
# [15] = tested on: Complement factor B; assay: as above; format: in vivo, human; conditions: 200 mg/day, week 26 vs. baseline
# Protocol: as §2
# [16] = tested on: Complement factor H; assay: as above; format: in vivo, human; conditions: 200 mg/day, week 26 vs. baseline
# Protocol: as §2
# [17] = tested on: Complement C5; assay: Plasma protein quantitation by LC-MRM/MS, ASSURE trial; format: in vivo, human; conditions: week 26 vs. baseline
# Protocol: (§3) The method can be used to determine the effect of compounds, including those in the present invention, on the levels of various analytes found in plasma.
# (§4) Using mass spectrometric methods, including multiple reaction monitoring (MRM) mass spectrometry (MRM-MS), each sample is analyzed for the presence and amount of 43 different plasma proteins. The changes in values for each protein analyte are calculated versus the baseline measure, and statistically significant (p<0.05) and trending (0.10>p>0.05) values are reported (Table 9). Downregulation of expression of components of the complement cascade will result in reduced activity of the pathway and thus will constitute a positive result.
# [18] = tested on: Complement component C9; assay: as above; format: in vivo, human; conditions: week 26 vs. baseline
# Protocol: as §3, §4
# [19] = tested on: Complement C4-B; assay: as above; format: in vivo, human; conditions: week 26 vs. baseline
# Protocol: as §3, §4
# [20] = tested on: Complement component C8 alpha chain; assay: as above; format: in vivo, human; conditions: week 26 vs. baseline
# Protocol: as §3, §4
# [21] = tested on: Complement C1r subcomponent; assay: as above; format: in vivo, human; conditions: week 26 vs. baseline
# Protocol: as §3, §4
# [22] = tested on: Complement factor I; assay: as above; format: in vivo, human; conditions: week 26 vs. baseline
# Protocol: as §3, §4
# [23] = tested on: classical complement system hemolytic activity (sensitized sheep erythrocytes); assay: Total hemolytic complement (CH50) assay on clinical serum samples; format: in vivo, human; conditions: ASSURE trial, 26 weeks vs baseline
# Protocol: The method can be used to determine the effect of compounds, including those in the present invention, on the activity of the classical and alternative complement system in clinical samples. […] Using the CH50 screening assay to detect the hemolysis of sheep erythrocytes sensitized by specific antibodies, the hemolytic activity of the complement system in serum samples from treated and untreated subjects was measured. Likewise, using specific conditions to activate only the alternative pathway (AH50), activity of the complement response was measured. The degree of complement activation was measured at baseline and terminally to determine if there were any changes in the function of the complement system following drug treatment (FIG. 7). Reduced function of the complement system constitutes a positive result.
structure (smiles),measurement,setting,value
"Cc1sc2c(c1C)C(c1ccc(Cl)cc1)=N[C@@H](CC(=O)OC(C)(C)C)c1nnc(C)n1-2 [JQ1, (S)-tert-butyl 2-(4-(4-chlorophenyl)-2,3,9-trimethyl-6H-thieno[3,2-f][1,2,4]triazolo[4,3-a][1,4]diazepin-6-yl)acetate, reference compound]",C3 percent maximal reduction in gene expression,[1],54% (24 h)
same,C2 percent maximal reduction in gene expression,[2],29% (72 h)
same,C1S percent maximal reduction in gene expression,[3],22% (72 h)
same,C5 percent maximal reduction in gene expression,[4],67% (24 h)
same,C9 percent maximal reduction in gene expression,[5],72% (48 h)
same,C4 percent maximal reduction in gene expression,[6],31% (24 h)
same,MBL2 percent maximal reduction in gene expression,[7],93% (24 h)
"COc1cc(OC)c2c(=O)[nH]c(-c3cc(C)c(OCCO)c(C)c3)nc2c1 [RVX000222, 2-(4-(2-hydroxyethoxy)-3,5-dimethylphenyl)-5,7-dimethoxyquinazolin-4(3H)-one]",Complement C1s subcomponent (C1S) % change vs. baseline,[8],−6.1%
same,C-reactive protein (CRP) % change vs. baseline,[9],−43.6%
same,C5a anaphylatoxin (C5) % change vs. baseline,[10],−28.7%
same,Complement C5b-C6 complex (C5 C6) % change vs. baseline,[11],−12.0%
same,Complement component C8 (C8) % change vs. baseline,[12],−10.1%
same,Complement component C6 (C6) % change vs. baseline,[13],−14.3%
same,Complement decay-accelerating factor (CD55) % change vs. baseline,[14],−4.0%
same,Complement factor B (CFB) % change vs. baseline,[15],−6.8%
same,Complement factor H (CFH) % change vs. baseline,[16],−5.6%
same,Complement C5 Change from baseline,[17],"−2,228 ng/mL"
same,Complement C5 Percent Change from baseline,[17],−5.3%
same,Complement component C9 Change from baseline,[18],"−5,034 ng/mL"
same,Complement component C9 Percent Change from baseline,[18],−13.8%
same,Complement C4-B Change from baseline,[19],"−7,492 ng/mL"
same,Complement C4-B Percent Change from baseline,[19],−4.3%
same,Complement component C8 alpha chain Change from baseline,[20],-120 ng/mL
same,Complement component C8 alpha chain Percent Change from baseline,[20],−8.6%
same,Complement C1r subcomponent Change from baseline,[21],-571 ng/mL
same,Complement C1r subcomponent Percent Change from baseline,[21],−3.6%
same,Complement factor I Change from baseline,[22],"−1,205 ng/mL"
same,Complement factor I Percent Change from baseline,[22],−5.2%
same,"complement activity in clinical samples, CHSO assay (FIG. 7B)",[23],reduces complement activity
